Patent EP1388586A2, “Identification of broadly reactive DR restricted epitopes” (priority 1998, dated 1999)
Peptide text beside a SMILES is read from it.

molecular target: T1, DRB1*0301 (DR3w17) (Homo sapiens, UniProt P01903+P01911, A100K/A102G/A103R/A169T/F55Y/I96L/K41T/L162R/M171V/P40S/Q125H/Q178H/Q39Y/R42S/S66N/T106N/T262R/W38E/Y61H); test: Class II peptide-binding assay, DR3 (pH 4.5); conditions: Table VIII; values in parentheses read as lower bounds; read-out: In IC50 Format DR3;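 note: unlabeled peptide competing with a radiolabeled probe peptide for binding to affinity-purified HLA-DR3, IC50 regarded as an approximation of Kd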
T1 construct: used as sources of human HLA class II molecules; endogenous in cells; host or cells: MAT (EBV-transformed homozygous B cell line)
T1 sequence (P01903 26-254, other chains not shown): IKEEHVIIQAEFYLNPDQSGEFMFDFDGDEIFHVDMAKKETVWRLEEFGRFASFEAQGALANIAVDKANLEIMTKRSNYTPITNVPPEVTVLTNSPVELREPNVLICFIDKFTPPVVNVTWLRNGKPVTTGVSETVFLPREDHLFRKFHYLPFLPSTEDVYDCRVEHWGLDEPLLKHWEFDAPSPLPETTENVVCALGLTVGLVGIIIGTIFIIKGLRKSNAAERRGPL

Row | IC50 [µM] | Structure (SMILES)
1 | 4.23 | CSCC[C@H](NC(=O)[C@H](CCCNC(=N)N)NC(=O)[C@H](CO)NC(=O)[C@H](Cc1ccccc1)NC(=O)[C@H](CCC(=O)O)NC(=O)[C@H](CO)NC(=O)[C@@H](NC(=O)[C@H](CC(C)C)NC(=O)[C@H](CCC(=O)O)NC(=O)[C@H](CCCNC(=N)N)NC(=O)[C@@H](N)Cc1ccccc1)C(C)C)C(=O)N[C@@H](C)C(=O)N[C@@H](CCCNC(=N)N)C(=O)N[C@@H](CC(=O)O)C(=O)N1CCC[C@H]1C(=O)O [Peptide 39.0370]

same assay, conditions: read-out: In IC50 Format DR3 nM; Table VIII; values in parentheses read as lower bounds

Row | Structure (SMILES) | IC50 [µM]
2 | CSCC[C@H](NC(=O)[C@H](CC(=O)O)NC(=O)[C@H](CC(C)C)NC(=O)[C@H](Cc1c[nH]cn1)NC(=O)[C@@H](NC(=O)[C@H](CCC(=O)O)NC(=O)[C@@H]1CCCN1C(=O)[C@H](CO)NC(=O)[C@H](C)NC(=O)[C@@H]1CCCN1C(=O)[C@H](CC(C)C)NC(=O)[C@@H](N)CCCNC(=N)N)[C@@H](C)O)C(=O)N[C@@H](CC(C)C)C(=O)N[C@@H](CCCNC(=N)N)C(=O)N[C@@H](Cc1c[nH]cn1)C(=O)O [Peptide 39.0338] | > 111
3 | CC(C)C[C@H](NC(=O)[C@H](Cc1ccc(O)cc1)NC(=O)[C@H](CC(N)=O)NC(=O)[C@@H](N)Cc1ccc(O)cc1)C(=O)N[C@@H](CO)C(=O)N[C@H](C(=O)N[C@@H](CC(=O)O)C(=O)N[C@H](C(=O)NCC(=O)N[C@@H](CO)C(=O)N[C@@H](CS)C(=O)N[C@H](C(=O)N[C@@H](CC(C)C)C(=O)N[C@H](C(=O)N[C@@H](CS)C(=O)O)C(C)C)[C@@H](C)O)C(C)C)[C@@H](C)O [Peptide 39.0346] (H-YNYLSTDVGSCTLVC-OH) | 50.8
4 | CC(C)C[C@H](NC(=O)[C@@H](NC(=O)[C@H](CCC(=O)O)NC(=O)[C@H](Cc1ccccc1)NC(=O)[C@@H](NC(=O)[C@H](CCC(N)=O)NC(=O)[C@H](CC(C)C)NC(=O)[C@H](CCC(N)=O)NC(=O)[C@H](CCC(=O)O)NC(=O)[C@@H]1CCCN1C(=O)[C@H](CCC(N)=O)NC(=O)[C@H](CC(C)C)NC(=O)[C@@H]1CCCN1C(=O)[C@H](C)NC(=O)[C@@H](N)[C@@H](C)O)C(C)C)[C@@H](C)O)C(=O)O [Peptide 39.0351] | 130
5 | CC(C)C[C@H](NC(=O)[C@H](CCC(N)=O)NC(=O)[C@H](CC(=O)O)NC(=O)[C@H](Cc1c[nH]c2ccccc12)NC(=O)[C@@H]1CCCN1C(=O)[C@@H](NC(=O)[C@@H](NC(=O)[C@H](Cc1c[nH]cn1)NC(=O)[C@@H](N)C(C)C)[C@@H](C)O)C(C)C)C(=O)N[C@@H](Cc1ccccc1)C(=O)N[C@@H](CCCNC(=N)N)C(=O)N[C@@H](CC(N)=O)C(=O)N1CCC[C@H]1C(=O)N[C@@H](Cc1c[nH]cn1)C(=O)N[C@@H](CCC(N)=O)C(=O)O [Peptide 39.0353] | 13.6
6 | CC(C)C[C@H](NC(=O)[C@H](CS)NC(=O)[C@H](Cc1c[nH]cn1)NC(=O)[C@H](CCCNC(=N)N)NC(=O)[C@H](C)NC(=O)[C@H](CC(N)=O)NC(=O)[C@@H](NC(=O)[C@H](Cc1ccc(O)cc1)NC(=O)[C@H](CCC(=O)O)NC(=O)[C@H](CCCNC(=N)N)NC(=O)[C@@H]1CCCN1C(=O)[C@H](CC(C)C)NC(=O)CNC(=O)[C@H](CCC(N)=O)NC(=O)[C@@H](N)CC(C)C)C(C)C)C(=O)O [Peptide 39.0355] | > 111
7 | CC[C@H](C)[C@H](N)C(=O)N[C@@H](Cc1c[nH]c2ccccc12)C(=O)N[C@@H](CCCCN)C(=O)N[C@@H](Cc1ccccc1)C(=O)N1CCC[C@H]1C(=O)N[C@@H](CC(=O)O)C(=O)N[C@@H](CCC(=O)O)C(=O)N[C@@H](CCC(=O)O)C(=O)NCC(=O)N[C@@H](C)C(=O)N[C@@H](CS)C(=O)N[C@@H](CCC(N)=O)C(=O)N1CCC[C@H]1C(=O)N[C@@H](CS)C(=O)N1CCC[C@H]1C(=O)O [Peptide 39.0358] (H-IWKFPDEEGACQPCP-OH) | > 111
8 | CSCC[C@H](NC(=O)[C@H](CC(=O)O)NC(=O)[C@H](CC(=O)O)NC(=O)[C@H](CC(=O)O)NC(=O)[C@H](CCC(=O)O)NC(=O)[C@H](CC(C)C)NC(=O)[C@H](CC(C)C)NC(=O)[C@H](CO)NC(=O)[C@@H](N)CCCNC(=N)N)C(=O)NCC(=O)N[C@@H](CC(=O)O)C(=O)N[C@@H](CC(C)C)C(=O)N[C@H](C(=O)N[C@@H](CC(=O)O)C(=O)N[C@@H](C)C(=O)O)C(C)C [Peptide 39.0374] | 37.5
9 | CC(C)C[C@H](NC(=O)[C@@H]1CCCN1C(=O)[C@@H](NC(=O)[C@@H](NC(=O)[C@@H]1CCCN1C(=O)[C@H](CC(=O)O)NC(=O)[C@H](CCC(=O)O)NC(=O)[C@H](CO)NC(=O)[C@H](Cc1ccc(O)cc1)NC(=O)[C@H](CCCNC(=N)N)NC(=O)[C@H](CCC(N)=O)NC(=O)[C@@H](N)CC(C)C)[C@@H](C)O)C(C)C)C(=O)N1CCC[C@H]1C(=O)N[C@@H](CO)C(=O)N[C@@H](CCC(=O)O)C(=O)O [Peptide 39.0379] | 11.1
10 | C[C@H](NC(=O)CNC(=O)CNC(=O)[C@@H](N)CCC(N)=O)C(=O)N[C@@H](C)C(=O)N1CCC[C@H]1C(=O)N[C@@H](CCC(N)=O)C(=O)N1CCC[C@H]1C(=O)N[C@@H](Cc1c[nH]cn1)C(=O)N1CCC[C@H]1C(=O)N1CCC[C@H]1C(=O)N1CCC[C@H]1C(=O)N[C@@H](C)C(=O)N[C@@H](Cc1ccccc1)C(=O)N[C@@H](CO)C(=O)O [Peptide 39.0382] | > 120
11 | CC[C@H](C)[C@H](NC(=O)CNC(=O)[C@H](Cc1ccccc1)NC(=O)[C@@H](NC(=O)[C@H](CC(C)C)NC(=O)[C@@H](N)CCC(N)=O)C(C)C)C(=O)N[C@@H](CCC(=O)O)C(=O)N[C@H](C(=O)N[C@H](C(=O)N[C@@H](CCC(=O)O)C(=O)N[C@H](C(=O)N[C@H](C(=O)N1CCC[C@H]1C(=O)N[C@H](C(=O)N[C@@H](CO)C(=O)O)[C@@H](C)CC)C(C)C)C(C)C)C(C)C)C(C)C [Peptide 39.0389] | 41.7

Further lines, results first:

Row | IC50 [µM] | Structure (SMILES)
12 | > 111 | CC(C)C[C@H](NC(=O)[C@@H]1CCCN1C(=O)CNC(=O)[C@@H](N)CCCCN)C(=O)N1CCC[C@H]1C(=O)N[C@H](C(=O)N[C@@H](CC(=O)O)C(=O)N[C@@H](CS)C(=O)N[C@@H](CS)C(=O)N[C@@H](Cc1c[nH]cn1)C(=O)N[C@@H](CCC(=O)O)C(=O)N[C@@H](CCC(N)=O)C(=O)N[C@@H](CS)C(=O)N[C@@H](C)C(=O)N[C@@H](C)C(=O)O)[C@@H](C)O [Peptide 39.0344]
13 | 36.1 | CSCC[C@H](NC(=O)CNC(=O)[C@H](CC(C)C)NC(=O)CNC(=O)[C@H](Cc1ccc(O)cc1)NC(=O)[C@@H](N)CS)C(=O)N[C@@H](CCC(=O)O)C(=O)N[C@@H](Cc1c[nH]cn1)C(=O)N[C@@H](CC(C)C)C(=O)N[C@@H](CCCNC(=N)N)C(=O)N[C@@H](CCC(=O)O)C(=O)N[C@H](C(=O)N[C@@H](CCCNC(=N)N)C(=O)N[C@@H](C)C(=O)N[C@H](C(=O)O)C(C)C)C(C)C [Peptide 39.0348]
14 | > 111 | CC(C)C[C@H](NC(=O)[C@@H]1CCCN1C(=O)[C@H](C)NC(=O)[C@@H](NC(=O)[C@H](CC(N)=O)NC(=O)[C@H](CO)NC(=O)[C@H](C)NC(=O)[C@@H]1CCCN1C(=O)[C@H](CC(=O)O)NC(=O)CNC(=O)[C@H](CC(=O)O)NC(=O)[C@H](Cc1ccccc1)NC(=O)[C@H](CO)NC(=O)[C@H](CCC(=O)O)NC(=O)[C@@H]1CCCN1)[C@@H](C)O)C(=O)O [Peptide 39.0350]
15 | > 111 | CC(C)[C@H](N)C(=O)N[C@H](C(=O)N[C@@H](CS)C(=O)N[C@@H](Cc1ccccc1)C(=O)NCC(=O)N1CCC[C@H]1C(=O)N[C@@H](CCC(=O)O)C(=O)N[C@@H](C)C(=O)N[C@@H](CC(=O)O)C(=O)N[C@@H](CCC(N)=O)C(=O)N[C@@H](CS)C(=O)N[C@H](C(=O)N[C@@H](C)C(=O)N[C@@H](CS)C(=O)N[C@@H](C)C(=O)O)C(C)C)[C@@H](C)O [Peptide 39.0356]
16 | > 111 | CC(C)C[C@H](NC(=O)[C@H](CC(=O)O)NC(=O)[C@@H](NC(=O)[C@H](CS)NC(=O)[C@H](CO)NC(=O)[C@@H](N)Cc1c[nH]cn1)C(C)C)C(=O)N[C@@H](CC(=O)O)C(=O)N[C@@H](CC(=O)O)C(=O)N[C@@H](CCCCN)C(=O)NCC(=O)N[C@@H](CS)C(=O)N1CCC[C@H]1C(=O)N[C@@H](C)C(=O)N[C@@H](CCC(=O)O)C(=O)N[C@@H](CCC(N)=O)C(=O)O [Peptide 39.0359]

same assay, conditions: read-out: In IC50 Format DR3; Table VIII

Row | IC50 [µM] | Structure (SMILES)
17 | > 120 | CC[C@H](C)[C@H](NC(=O)[C@H](C)NC(=O)[C@@H](N)CC(C)C)C(=O)N[C@H](C(=O)N[C@@H](C)C(=O)N[C@@H](CCCNC(=N)N)C(=O)N[C@@H](CCC(=O)O)C(=O)NCC(=O)N[C@@H](CC(=O)O)C(=O)N[C@@H](CS)C(=O)N[C@@H](C)C(=O)N1CCC[C@H]1C(=O)N[C@@H](CCC(=O)O)C(=O)N[C@@H](CCC(=O)O)C(=O)N[C@@H](CCCCN)C(=O)O)[C@@H](C)CC [Peptide 39.0405]
18 | > 120 | CC(C)C[C@H](NC(=O)[C@H](CCCCN)NC(=O)[C@H](Cc1c[nH]c2ccccc12)NC(=O)[C@H](CC(C)C)NC(=O)[C@H](CC(=O)O)NC(=O)[C@H](CO)NC(=O)[C@H](Cc1ccccc1)NC(=O)[C@@H](NC(=O)[C@H](CCC(=O)O)NC(=O)[C@H](CCC(N)=O)NC(=O)[C@H](CO)NC(=O)[C@H](CC(C)C)NC(=O)[C@@H]1CCCN1C(=O)[C@@H]1CCCN1C(=O)[C@@H](N)CCC(=O)O)[C@@H](C)O)C(=O)O [Peptide 39.0409]
19 | 20 | CC[C@H](C)[C@H](NC(=O)[C@H](CC(=O)O)NC(=O)[C@H](CC(=O)O)NC(=O)[C@@H]1CCCN1C(=O)[C@H](CO)NC(=O)[C@H](CC(C)C)NC(=O)[C@H](CCSC)NC(=O)[C@H](CC(C)C)NC(=O)[C@@H](N)CC(=O)O)C(=O)N[C@@H](CCC(=O)O)C(=O)N[C@@H](CCC(N)=O)C(=O)N[C@@H](Cc1c[nH]c2ccccc12)C(=O)N[C@@H](Cc1ccccc1)C(=O)N[C@H](C(=O)N[C@@H](CCC(=O)O)C(=O)O)[C@@H](C)O [Peptide 39.0411]
20 | > 120 | C[C@H](NC(=O)[C@H](CCC(=O)O)NC(=O)[C@H](CC(=O)O)NC(=O)[C@@H]1CCCN1C(=O)CNC(=O)[C@@H]1CCCN1C(=O)[C@H](CC(=O)O)NC(=O)[C@H](CCC(=O)O)NC(=O)[C@@H](NC(=O)[C@H](Cc1ccccc1)NC(=O)[C@H](Cc1c[nH]c2ccccc12)NC(=O)[C@H](CCC(N)=O)NC(=O)[C@@H](N)CCC(=O)O)[C@@H](C)O)C(=O)N1CCC[C@H]1C(=O)N[C@@H](CCCNC(=N)N)C(=O)O [Peptide 39.0412]
